Experimental data published in ChEMBL document CHEMBL1821675, “The selective P-TEFb inhibitor CAN508 targets angiogenesis” (Eur J Med Chem, 2011).
Activity calls are given as the source filed them. The calls are words filed in the database; no cut-off is given here.

Assays:
RXF 393 = assay: Cytotoxicity against human RXF393 cells; type: functional
MCF7 = assay: Cytotoxicity against human MCF7 cells; type: functional
[1] = Antiangiogenic activity in VEGF-stimulated HMEC1 assessed as reduction in total length of tube at 20 uM after 16 hrs by photographic analysis; type: functional, Homo sapiens, HMEC-1; parameters: scale not given: the % may be the effect or the level left
SNB-19 = assay: Cytotoxicity against human SNB19 cells; type: functional
[2] = target: Maternal embryonic leucine zipper kinase (Homo sapiens) (UniProt Q14680); assay: Inhibition of MELK assessed as residual activity at 10 uM by radioactivity assay in presence of 50 uM ATP
Chain of Maternal embryonic leucine zipper kinase (Homo sapiens) (Q14680 whole entry, looked up): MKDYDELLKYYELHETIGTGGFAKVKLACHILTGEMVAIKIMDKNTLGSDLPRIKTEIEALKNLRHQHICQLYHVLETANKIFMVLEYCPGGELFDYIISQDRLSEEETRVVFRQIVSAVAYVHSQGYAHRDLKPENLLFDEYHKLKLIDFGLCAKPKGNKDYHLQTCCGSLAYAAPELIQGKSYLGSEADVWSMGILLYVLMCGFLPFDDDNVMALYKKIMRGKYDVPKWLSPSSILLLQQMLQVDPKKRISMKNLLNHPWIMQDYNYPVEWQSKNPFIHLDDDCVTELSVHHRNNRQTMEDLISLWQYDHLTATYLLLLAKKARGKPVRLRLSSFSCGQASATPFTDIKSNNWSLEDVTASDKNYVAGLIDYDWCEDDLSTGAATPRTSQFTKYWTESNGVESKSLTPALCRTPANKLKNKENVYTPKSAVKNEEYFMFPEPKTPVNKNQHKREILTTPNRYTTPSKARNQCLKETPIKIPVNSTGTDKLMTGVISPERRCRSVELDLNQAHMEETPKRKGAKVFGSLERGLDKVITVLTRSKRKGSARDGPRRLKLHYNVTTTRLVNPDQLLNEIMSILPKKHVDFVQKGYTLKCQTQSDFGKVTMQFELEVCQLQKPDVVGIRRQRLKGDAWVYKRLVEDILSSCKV

[3] = target: Cyclin-dependent kinase 7 (Homo sapiens) (UniProt P50613); assay: Inhibition of CDK7-catalyzed RNA polymerase 2 phosphorylation at Ser5 in human MCF7 cells at 5 to 40 uM after 2 hrs by immunoblotting; type: cell-based
NCI-H460 = assay: Cytotoxicity against human NCI-H460 cells; type: functional
[4] = target: Tyrosine-protein kinase SYK (Homo sapiens) (UniProt P43405); assay: Inhibition of SYK assessed as residual activity at 10 uM by radioactivity assay in presence of 20 uM ATP
M14 = assay: Cytotoxicity against human M14 cells; type: functional
[5] = target: MAP kinase-activated protein kinase 3 (Homo sapiens) (UniProt Q16644); assay: Inhibition of MAPKAP-K3 assessed as residual activity at 10 uM by radioactivity assay in presence of 20 uM ATP
NCI-H226 = assay: Cytotoxicity against human NCI-H226 cells; type: functional
[6] = target: Mitogen-activated protein kinase 8 (Homo sapiens) (UniProt P45983); assay: Inhibition of JNK1A1 assessed as residual activity at 10 uM by radioactivity assay in presence of 20 uM ATP
786-0 = assay: Cytotoxicity against human 786-0 cells; type: functional
NCI-H522 = assay: Cytotoxicity against human NCI-H522 cells; type: functional
[7] = target: RAC-alpha serine/threonine-protein kinase (Homo sapiens) (UniProt P31749); assay: Inhibition of PKBalpha assessed as residual activity at 10 uM by radioactivity assay in presence of 5 uM ATP
OVCAR-4 = assay: Cytotoxicity against human OVCAR4 cells; type: functional
[8] = target: Mitogen-activated protein kinase 10 (Homo sapiens) (UniProt P53779); assay: Inhibition of JNK3alpha1 assessed as residual activity at 10 uM by radioactivity assay in presence of 20 uM ATP
Chain of Mitogen-activated protein kinase 10 (Homo sapiens) (P53779 whole entry): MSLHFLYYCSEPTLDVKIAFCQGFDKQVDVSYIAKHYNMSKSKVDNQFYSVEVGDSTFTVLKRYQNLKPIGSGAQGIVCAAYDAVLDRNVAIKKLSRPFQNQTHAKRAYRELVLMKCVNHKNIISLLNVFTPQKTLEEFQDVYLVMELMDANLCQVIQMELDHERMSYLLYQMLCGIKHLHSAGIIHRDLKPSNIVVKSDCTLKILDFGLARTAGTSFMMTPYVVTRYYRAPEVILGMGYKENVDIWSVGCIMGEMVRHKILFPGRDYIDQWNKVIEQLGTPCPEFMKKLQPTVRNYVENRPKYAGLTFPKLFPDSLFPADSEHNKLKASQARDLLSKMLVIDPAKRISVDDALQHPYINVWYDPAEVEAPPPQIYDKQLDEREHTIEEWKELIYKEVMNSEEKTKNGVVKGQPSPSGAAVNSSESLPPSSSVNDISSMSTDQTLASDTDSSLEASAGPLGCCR

[9] = target: Serine/threonine-protein kinase Sgk1 (Homo sapiens) (UniProt O00141); assay: Inhibition of SGK1 assessed as residual activity at 10 uM by radioactivity assay in presence of 20 uM ATP
Chain of Serine/threonine-protein kinase Sgk1 (Homo sapiens) (O00141 whole entry): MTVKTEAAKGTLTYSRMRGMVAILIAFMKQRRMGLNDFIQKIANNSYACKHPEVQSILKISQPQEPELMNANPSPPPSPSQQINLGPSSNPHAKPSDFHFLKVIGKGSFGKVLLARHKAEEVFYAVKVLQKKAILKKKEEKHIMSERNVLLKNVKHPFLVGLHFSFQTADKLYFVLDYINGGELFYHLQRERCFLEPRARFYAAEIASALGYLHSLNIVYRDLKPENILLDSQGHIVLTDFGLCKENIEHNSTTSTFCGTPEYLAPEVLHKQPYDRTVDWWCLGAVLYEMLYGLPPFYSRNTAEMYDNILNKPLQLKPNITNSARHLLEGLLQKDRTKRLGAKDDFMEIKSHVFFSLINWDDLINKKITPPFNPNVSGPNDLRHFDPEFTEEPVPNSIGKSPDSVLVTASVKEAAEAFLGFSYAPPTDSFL

[10] = target: Insulin receptor-related protein (Homo sapiens) (UniProt P14616); assay: Inhibition of IRR assessed as residual activity at 10 uM by radioactivity assay in presence of 5 uM ATP
[11] = target: Tyrosine-protein kinase Yes (Homo sapiens) (UniProt P07947); assay: Inhibition of YES1 assessed as residual activity at 10 uM by radioactivity assay in presence of 20 uM ATP
Chain of Tyrosine-protein kinase Yes (Homo sapiens) (P07947 2-543 limits assumed): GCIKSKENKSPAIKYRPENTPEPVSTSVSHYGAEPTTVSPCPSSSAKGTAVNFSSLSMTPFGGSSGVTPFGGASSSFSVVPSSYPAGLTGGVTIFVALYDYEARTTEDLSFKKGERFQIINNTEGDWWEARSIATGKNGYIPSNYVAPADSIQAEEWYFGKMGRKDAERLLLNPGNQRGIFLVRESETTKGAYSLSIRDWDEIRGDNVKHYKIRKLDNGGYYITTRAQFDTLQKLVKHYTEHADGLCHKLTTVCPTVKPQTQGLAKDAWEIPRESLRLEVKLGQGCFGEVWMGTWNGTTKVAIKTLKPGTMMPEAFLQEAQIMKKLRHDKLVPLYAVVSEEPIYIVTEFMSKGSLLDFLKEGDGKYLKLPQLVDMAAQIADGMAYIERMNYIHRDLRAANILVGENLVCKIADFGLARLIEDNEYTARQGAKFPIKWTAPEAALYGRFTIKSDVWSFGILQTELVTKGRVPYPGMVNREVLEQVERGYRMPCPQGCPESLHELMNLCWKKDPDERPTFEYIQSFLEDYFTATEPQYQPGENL

[12] = target: Casein kinase II subunit alpha (Homo sapiens) (UniProt P68400); assay: Inhibition of CK2alpha assessed as residual activity at 10 uM by radioactivity assay in presence of 20 uM ATP
Chain of Casein kinase II subunit alpha (Homo sapiens) (P68400 whole entry, looked up): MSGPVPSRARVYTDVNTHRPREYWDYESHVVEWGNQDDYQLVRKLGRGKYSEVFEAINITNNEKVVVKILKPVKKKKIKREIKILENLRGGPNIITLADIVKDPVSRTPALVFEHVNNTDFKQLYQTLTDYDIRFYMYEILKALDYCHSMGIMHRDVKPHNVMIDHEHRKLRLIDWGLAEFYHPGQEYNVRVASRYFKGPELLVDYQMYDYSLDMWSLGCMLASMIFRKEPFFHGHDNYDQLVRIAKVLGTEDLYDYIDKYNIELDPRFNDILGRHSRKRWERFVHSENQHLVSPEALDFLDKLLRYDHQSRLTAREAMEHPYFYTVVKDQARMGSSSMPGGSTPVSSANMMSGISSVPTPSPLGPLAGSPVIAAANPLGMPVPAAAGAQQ

[13] = target: Homeodomain-interacting protein kinase 3 (Homo sapiens) (UniProt Q9H422); assay: Inhibition of HIPK3 assessed as residual activity at 10 uM by radioactivity assay in presence of 20 uM ATP
Chain of Homeodomain-interacting protein kinase 3 (Homo sapiens) (Q9H422 whole entry, looked up): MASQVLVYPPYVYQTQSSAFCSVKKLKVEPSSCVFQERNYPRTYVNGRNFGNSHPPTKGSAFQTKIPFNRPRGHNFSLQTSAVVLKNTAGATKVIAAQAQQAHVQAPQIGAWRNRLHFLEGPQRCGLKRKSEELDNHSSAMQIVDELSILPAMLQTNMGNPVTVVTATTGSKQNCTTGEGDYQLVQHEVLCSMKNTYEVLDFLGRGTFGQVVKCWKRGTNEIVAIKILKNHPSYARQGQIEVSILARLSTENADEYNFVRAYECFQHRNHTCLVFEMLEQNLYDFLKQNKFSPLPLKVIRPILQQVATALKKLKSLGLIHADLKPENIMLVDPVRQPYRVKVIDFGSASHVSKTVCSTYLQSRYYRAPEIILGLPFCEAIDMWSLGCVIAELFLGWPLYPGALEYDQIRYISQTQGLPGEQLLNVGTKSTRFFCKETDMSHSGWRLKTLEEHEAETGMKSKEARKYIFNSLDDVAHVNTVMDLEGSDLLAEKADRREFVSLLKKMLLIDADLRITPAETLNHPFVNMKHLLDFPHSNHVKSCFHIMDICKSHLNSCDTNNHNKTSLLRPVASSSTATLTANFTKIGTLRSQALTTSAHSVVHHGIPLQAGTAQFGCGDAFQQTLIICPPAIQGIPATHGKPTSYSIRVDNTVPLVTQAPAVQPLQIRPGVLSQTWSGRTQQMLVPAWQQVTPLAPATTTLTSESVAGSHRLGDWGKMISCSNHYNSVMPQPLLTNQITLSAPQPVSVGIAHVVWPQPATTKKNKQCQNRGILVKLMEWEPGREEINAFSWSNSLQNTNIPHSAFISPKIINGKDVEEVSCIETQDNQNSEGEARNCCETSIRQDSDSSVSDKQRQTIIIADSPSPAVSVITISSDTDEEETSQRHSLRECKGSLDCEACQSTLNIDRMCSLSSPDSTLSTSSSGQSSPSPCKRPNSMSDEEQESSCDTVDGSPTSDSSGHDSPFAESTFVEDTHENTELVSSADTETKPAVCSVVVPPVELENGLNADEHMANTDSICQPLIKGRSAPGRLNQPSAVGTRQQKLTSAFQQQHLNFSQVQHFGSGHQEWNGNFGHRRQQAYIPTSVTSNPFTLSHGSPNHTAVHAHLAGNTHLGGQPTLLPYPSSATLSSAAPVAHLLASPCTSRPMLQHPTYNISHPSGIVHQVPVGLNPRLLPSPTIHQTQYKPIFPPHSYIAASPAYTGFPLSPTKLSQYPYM

[14] = target: Serine/threonine-protein kinase N2 (Homo sapiens) (UniProt Q16513); assay: Inhibition of PRK2 assessed as residual activity at 10 uM by radioactivity assay in presence of 5 uM ATP
[15] = target: Tyrosine-protein kinase Lck (Homo sapiens) (UniProt P06239); assay: Inhibition of Lck assessed as residual activity at 10 uM by radioactivity assay in presence of 50 uM ATP
Chain of Tyrosine-protein kinase Lck (Homo sapiens) (P06239 2-509 limits assumed): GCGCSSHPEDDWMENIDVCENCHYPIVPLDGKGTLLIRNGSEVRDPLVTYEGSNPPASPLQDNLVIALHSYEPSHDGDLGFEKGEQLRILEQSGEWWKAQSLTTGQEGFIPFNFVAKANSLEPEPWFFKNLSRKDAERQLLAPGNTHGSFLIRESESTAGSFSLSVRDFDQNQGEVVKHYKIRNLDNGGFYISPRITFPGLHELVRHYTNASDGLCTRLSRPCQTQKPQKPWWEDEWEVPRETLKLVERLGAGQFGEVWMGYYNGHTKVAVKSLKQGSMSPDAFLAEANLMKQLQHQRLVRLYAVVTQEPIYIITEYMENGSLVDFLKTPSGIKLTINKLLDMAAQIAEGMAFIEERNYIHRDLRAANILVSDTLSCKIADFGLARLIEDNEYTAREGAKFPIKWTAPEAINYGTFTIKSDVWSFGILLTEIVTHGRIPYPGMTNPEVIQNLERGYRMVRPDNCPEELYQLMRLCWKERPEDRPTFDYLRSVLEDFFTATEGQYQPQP

[16] = target: Serine/threonine-protein kinase pim-3 (Homo sapiens) (UniProt Q86V86); assay: Inhibition of PIM3 assessed as residual activity at 10 uM by radioactivity assay in presence of 20 uM ATP
[17] = target: Mitogen-activated protein kinase 13 (Homo sapiens) (UniProt O15264); assay: Inhibition of p38delta MAPK assessed as residual activity at 10 uM by radioactivity assay in presence of 5 uM ATP
[18] = target: Mitogen-activated protein kinase 14 (Homo sapiens) (UniProt Q16539); assay: Inhibition of p38alpha MAPK assessed as residual activity at 10 uM by radioactivity assay in presence of 50 uM ATP
[19] = target: MAP kinase-interacting serine/threonine-protein kinase 2 (Homo sapiens) (UniProt Q9HBH9); assay: Inhibition of MNK2alpha assessed as residual activity at 10 uM by radioactivity assay in presence of 50 uM ATP
[20] = target: Insulin receptor (Homo sapiens) (UniProt P06213); assay: Inhibition of IR assessed as residual activity at 10 uM by radioactivity assay in presence of 20 uM ATP
BT-549 = assay: Cytotoxicity against human BT549 cells; type: functional
[21] = target: Ephrin type-A receptor 4 (Homo sapiens) (UniProt P54764); assay: Inhibition of EPHA4 assessed as residual activity at 10 uM by radioactivity assay in presence of 50 uM ATP
[22] = target: Serine/threonine-protein kinase TBK1 (Homo sapiens) (UniProt Q9UHD2); assay: Inhibition of TBK1 assessed as residual activity at 10 uM by radioactivity assay in presence of 50 uM ATP
Chain of Serine/threonine-protein kinase TBK1 (Homo sapiens) (Q9UHD2 whole entry): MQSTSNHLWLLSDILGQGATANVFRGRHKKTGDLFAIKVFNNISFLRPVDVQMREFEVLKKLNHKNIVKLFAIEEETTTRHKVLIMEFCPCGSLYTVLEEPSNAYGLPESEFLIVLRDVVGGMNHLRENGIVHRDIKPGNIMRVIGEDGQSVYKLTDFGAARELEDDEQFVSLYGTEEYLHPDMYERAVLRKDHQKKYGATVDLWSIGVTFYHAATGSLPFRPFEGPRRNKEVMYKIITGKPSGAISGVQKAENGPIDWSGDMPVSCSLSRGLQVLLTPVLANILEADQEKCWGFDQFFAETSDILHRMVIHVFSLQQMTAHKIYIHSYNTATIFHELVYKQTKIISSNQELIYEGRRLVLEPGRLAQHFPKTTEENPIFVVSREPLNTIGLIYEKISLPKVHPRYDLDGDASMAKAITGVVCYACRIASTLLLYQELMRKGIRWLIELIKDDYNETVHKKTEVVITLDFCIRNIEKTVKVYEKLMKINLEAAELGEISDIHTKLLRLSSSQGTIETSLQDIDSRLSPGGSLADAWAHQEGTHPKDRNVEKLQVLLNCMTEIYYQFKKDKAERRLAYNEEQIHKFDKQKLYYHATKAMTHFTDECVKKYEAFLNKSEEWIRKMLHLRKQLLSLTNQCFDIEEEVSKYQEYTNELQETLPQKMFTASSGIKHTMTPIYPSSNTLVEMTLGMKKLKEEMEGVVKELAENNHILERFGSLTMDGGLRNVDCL

UACC-257 = assay: Cytotoxicity against human UACC257 cells; type: functional
PC-3 = assay: Cytotoxicity against human PC3 cells; type: functional
SW-620 = assay: Cytotoxicity against human SW620 cells; type: functional
[23] = target: Inhibitor of nuclear factor kappa-B kinase subunit beta (Homo sapiens) (UniProt O14920); assay: Inhibition of IKK-beta assessed as residual activity at 10 uM by radioactivity assay in presence of 5 uM ATP
[24] = target: Serine/threonine-protein kinase PAK 2 (Homo sapiens) (UniProt Q13177); assay: Inhibition of PAK2 assessed as residual activity at 10 uM by radioactivity assay in presence of 20 uM ATP
[25] = target: Serine/threonine-protein kinase pim-2 (Homo sapiens) (UniProt Q9P1W9); assay: Inhibition of PIM2 assessed as residual activity at 10 uM by radioactivity assay in presence of 5 uM ATP
[26] = target: Ribosomal protein S6 kinase alpha-1 (Homo sapiens) (UniProt Q15418); assay: Inhibition of RSK1 assessed as residual activity at 10 uM by radioactivity assay in presence of 50 uM ATP
[27] = Cytotoxicity against human Hs 578T cells; type: functional
[28] = target: Serine/threonine-protein kinase MARK2 (Homo sapiens) (UniProt Q7KZI7); assay: Inhibition of MARK2 assessed as residual activity at 10 uM by radioactivity assay in presence of 20 uM ATP

Q: Which results are given for `Nc1n[nH]c(N)c1/N=N/c1ccc(O)cc1`?
A: GI50 (RXF 393): 18.4 µM; GI50 (MCF7): 23.5 µM; Activity [1]: 20%; GI50 (SNB-19): 29.9 µM; Activity [2]: 46%; inhibition [3]: Active; GI50 (NCI-H460): 25.1 µM; Activity [4]: 94%; GI50 (M14): 15.9 µM; Activity [5]: 89%; GI50 (NCI-H226): 17.7 µM; Activity [6]: 87%; GI50 (786-0): 26.2 µM; GI50 (NCI-H522): 24.3 µM; Activity [7]: 100%; GI50 (OVCAR-4): 19 µM; Activity [8]: 108%; Activity [9]: 94%; Activity [10]: 29%; Activity [11]: 79%; Activity [12]: 48%; Activity [13]: 84%; Activity [14]: 30%; Activity [15]: 113%; Activity [16]: 19%; Activity [17]: 77%; Activity [18]: 101%; Activity [19]: 39%; Activity [20]: 78%; GI50 (BT-549): 14 µM; Activity [21]: 93%; Activity [22]: 55%; GI50 (UACC-257): 24.4 µM; GI50 (PC-3): 20.3 µM; GI50 (SW-620): 26.3 µM; Activity [23]: 31%; Activity [24]: 91%; Activity [25]: 69%; Activity [26]: 93%; GI50 [27]: 21.8 µM; Activity [28]: 79%
